Drawing on patent US7060718B2, “Arylsulfonanilide ureas” (Amgen Inc., priority 1998, dated 2006), this text covers IC (TGI) and melting point for 17 molecules.

For one data set, the system named is HeLa cells. Kind of data set: Tumor cell growth arrest in culture, Alamar Blue assay (HeLa). The format is cell-based. As to conditions: Homo sapiens, concentration at which total growth inhibition occurred, 72 hours of treatment, triplicate. As for the experimental part: (§1) The ability of test compounds to arrest the growth of tumor cells in culture was evaluated using HeLa cells, derived from a human cervical adenocarcinoma, and obtained from the American Type Culture Collection (ATCC, Rockville, Md.). Cells were grown in culture in the usual way. Test compounds were dosed in triplicate at concentrations ranging from 5 μM to 50 μM, and the cellular growth rate was calculated by harvesting the cells after 72 hours of treatment and measuring their metabolic activity using an Alamar Blue assay (Biosource International, Camarillo, Calif.). The degree of metabolic activity in the culture is proportional to the number of living cells. See, Ahmed et al., J. Immunol. Methods 1994, 170, 211. The change in growth rate for cells treated with test compounds was normalized to the growth of untreated cells and a plot of normalized cellular growth vs. compound concentration was made. The concentration at which total growth inhibition (TGI) occurred was determined. Compounds were similarly evaluated for cell growth inhibition using MCF-7/ ADR cells.
Background: Resazurin is reduced to fluorescent resorufin, in cell work by metabolically active cells.

Another data set concerns MCF-7/ADR cells. Kind of data set: Cell growth inhibition (MCF-7/ADR), evaluated similarly. The format is cell-based. Conditions: Homo sapiens, NCI/ADR-RES, concentration at which total growth inhibition occurred. As for the experimental part: as §1

Molecules are shown by their SMILES.

Consider `COCCNC(=O)Nc1cc(NS(=O)(=O)c2c(F)c(F)c(F)c(F)c2F)ccc1OC` [Compound 21], for which the figures for the IC (TGI) in the data set with HeLa cells and in the data set with MCF-7/ADR cells were 5 to 40 µM and greater than 40 µM, respectively.
The matching figures for `COc1ccc(NS(=O)(=O)c2c(F)c(F)c(F)c(F)c2F)cc1NC(=O)Nc1nccs1` [Compound 17]: greater than 40 µM and greater than 40 µM.
The like results for `COc1ccc(NS(=O)(=O)c2c(F)c(F)c(F)c(F)c2F)cc1NC(=O)NC(CO)CO` [Compound 12] were, in that order, greater than 40 µM and greater than 40 µM.
In the case of `COc1ccc(NS(=O)(=O)c2c(F)c(F)c(F)c(F)c2F)cc1NC(=O)Nc1ccccc1` [Compound 16], the IC (TGI) in the data set on HeLa cells is 5 to 40 µM; in the data set with MCF-7/ADR cells, greater than 40 µM.
In the case of `COc1ccc(NS(=O)(=O)c2c(F)c(F)c(F)c(F)c2F)cc1NC(=O)n1ncnc1N` [Compound 18], the IC (TGI) in the data set on HeLa cells and with MCF-7/ADR cells was less than 5 µM each time.
On to `CCOC(=O)CNC(=O)Nc1cc(NS(=O)(=O)c2c(F)c(F)c(F)c(F)c2F)ccc1OC` [Compound 6], for which the melting point lay within 164 to 170 °C. In addition, the IC (TGI) in the data set with HeLa cells was greater than 40 µM. Moreover, the IC (TGI) in the data set on MCF-7/ADR cells was greater than 40 µM.
`COc1ccc(NS(=O)(=O)c2c(F)c(F)c(F)c(F)c2F)cc1NC(=O)n1nccc1N` [Compound 7] yielded a melting point of 140 to 144 °C. Further, the IC (TGI) with HeLa cells is less than 5 µM. In addition, the IC (TGI) in the data set on MCF-7/ADR cells was less than 5 µM.
For the molecule `COc1ccc(NS(=O)(=O)c2c(F)c(F)c(F)c(F)c2F)cc1NC(=O)NCC(O)CO` (centres unmarked) [Compound 10], the IC (TGI) in the data set with HeLa cells and in the data set on MCF-7/ADR cells was 5 to 40 µM in each case.
As for `COc1ccc(NS(=O)(=O)c2c(F)c(F)c(F)c(F)c2F)cc1NC(=O)NCCO` [Compound 13], the IC (TGI) was 5 to 40 µM in the data set with HeLa cells and greater than 40 µM in the data set on MCF-7/ADR cells.
The matching figures for `COc1ccc(NS(=O)(=O)c2c(F)c(F)c(F)c(F)c2F)cc1NC(=O)NCCCO` [Compound 14]: 5 to 40 µM and greater than 40 µM.
The matching figures for `COc1ccc(NS(=O)(=O)c2c(F)c(F)c(F)c(F)c2F)cc1NC(=O)Nc1nncs1` [Compound 20]: 5 to 40 µM and 5 to 40 µM.
As to `COc1ccc(NS(=O)(=O)c2c(F)c(F)c(F)c(F)c2F)cc1NC(=O)N(CCO)CCO` [Compound 15], the IC (TGI) in the data set on HeLa cells and with MCF-7/ADR cells was greater than 40 µM each time.
Regarding `COc1ccc(NS(=O)(=O)c2c(F)c(F)c(F)c(F)c2F)cc1NC(=O)NCC(N)=O` [Compound 11], the IC (TGI) with HeLa cells and in the data set with MCF-7/ADR cells was greater than 40 µM throughout.
With `COc1ccc(NS(=O)(=O)c2c(F)c(F)c(F)c(F)c2F)cc1NC(=O)Nc1nnn[nH]1` [Compound 19], the IC (TGI) with HeLa cells is less than 5 µM; with MCF-7/ADR cells, 5 to 40 µM.
The like results for `COc1ccc(NS(=O)(=O)c2c(F)c(F)c(F)c(F)c2F)cc1NC(=O)N1CCOCC1` [Compound 9] were, in that order, 5 to 40 µM and 5 to 40 µM.
The molecule `COc1ccc(NS(=O)(=O)c2c(F)c(F)c(F)c(F)c2F)cc1NC(=O)NCc1ccco1` [Compound 8] registered a melting point of 208 °C. In the data set on HeLa cells, this molecule yielded an IC (TGI) of less than 5 µM. Also, the IC (TGI) with MCF-7/ADR cells was less than 5 µM.
Take `COc1ccc(NS(=O)(=O)c2c(F)c(F)c(F)c(F)c2F)cc1NC(N)=O` [Compound 5]: the melting point worked out at 226 °C. In the data set with HeLa cells, the IC (TGI) was less than 5 µM. The molecule also gave an IC (TGI) in the data set with MCF-7/ADR cells of less than 5 µM.

As usually defined, the melting point is the temperature of the solid-liquid transition.
